One test deals with A375 (BRAF V600E). Put plainly: Cell proliferation MTT assay. The class given is cell-based. Particulars: Homo sapiens. The procedure: (§1) The synergism and antagonism (CI value) were determined and analyzed using CompuSyn 1.0.
(§2) For cytotoxicity test, normal NHDF (5000 cells/well) and NHEM cell line (3000 cells/well) were planted into 96-well plates. For cell proliferation assay, A375 (1500 cells/well), SK-MEL-28 (3000 cells/well), SK-MEL-2 (4000 cells/well), and HCT116 (1500 cells/well) were planted into 96-well plates, determined concentration of drug was added after culture for 24 h. The viability of the cells was detected within 72 h using MTT solution (5 mg/mL). The absorbance at 570/490 nm was quantified by the use of the microplate reader.
In general terms: Tetrazolium dyes change colour on reduction, which living cells bring about.

Another test relates to HCT116 (KRAS mut). Put plainly: Cell proliferation MTT assay. Format: cell-based. The settings on record: Homo sapiens, HCT-116; MTT, 72 h; read-out: IC50. The procedure: as §1, §2
The subject of the next test is SK-MEL-2 (NRAS mut). Put plainly: Cell proliferation MTT assay. Format: cell-based. The settings on record: Homo sapiens, SK-MEL-2; MTT, 72 h; read-out: IC50. The procedure: as §1, §2
A further test concerns SK-MEL-28 (BRAF V600E). As to the kind of experiment: Cell proliferation MTT assay. The class given is cell-based. Particulars: Homo sapiens. On the procedure: as §1, §2
The next test relates to melanoma PDX. As to the kind of experiment: Patient-derived xenograft (PDX). The class given is in vivo. Particulars: oral gavage; erianin, vemurafenib 50 mg/kg once a day; cobimetinib 5 mg/kg twice a week; within 78 days. The procedure:
Fig. 7 Erianin exerts antitumor efficacy in melanoma and colorectal cancer in vivo. a Tumor pharmacodynamic assay was performed in tumor-bearing NPG mice (tumor has been passaged from melanoma patient to mice for three generations). The photographs show tumors from melanoma PDX mice treated with vehicle or drugs. b The effect of erianin on the volume of PDX tumors over time (within 78 days) was plotted. Vehicle, erianin (50 mg/kg, once a day), vemurafenib (50 mg/kg, once a day), erianin and vemurafenib combination therapy, cobimetinib (5 mg/kg, twice a week) or vemurafenib and cobimetinib combination therapy (once a day and twice a week, respectively) were administered by oral gavage, n = 8 in each group. Tumor volume was measured once a week. […] Scale bars: 20 μm. One-way ANOVA test. ***p < 0.001. e Antitumor efficacy of erianin with or without immunity using B16F10 cell xenograft in C57BL-6J mouse. f, g Trend of tumor volume over time and tumor weight was measured after treatment on the last day of the study.
On the technique in general: Xenograft models place foreign cells or tissue in a host animal.

For test [1], the system named is MAPK signaling pathway (phospho-CRAF, phospho-MEK1/2, phospho-ERK1/2). As to the kind of experiment: Western blotting of MAPK signaling pathway in cells. For orientation: Immunoblotting shows a protein as a band on a membrane.
Excerpt: Data were shown as means ± S.D. of three independent experiments. The asterisks (*p < 0.05, **p < 0.01, ***p < 0.001) indicate a significant difference in the expression of phosphorylation of ERK1 or ERK2 vs total ERK1 or ERK2 in control and erianin-treated group. g The luminescent ADP detection assay was developed to detect the luminescence signal of ATP-to-ADP using the same concentration kinases and substrates described in above kinase assay.
Protein was quantified using a BCA assay kit and then western blotting was conducted.
Another test concerns A375 (BRAF V600E) CDX. As to the kind of experiment: Cell-derived xenograft (CDX). The settings on record: 50 mg/kg, oral gavage, vs vehicle-treated group. On the procedure:
(§3) Tumor volume (mm^3) = (length × width × height) × 0.52. SK-MEL-2: n = 10; A375 and SK-MEL-28: n = 8; HCT116: n = 9. b The photographs show tumors from CDX mice treated with vehicle, erianin, vemurafenib, or the combination. c The weight of the tumors was quantified and expressed as the treatment groups compared with the vehicle-treated group. […] The tissue lysates were prepared from CDX tumor tissues in each treatment group. […] Each point represents the IOD values of four quantified data from one mouse. Scale bars: 50 μm.
(§4) The animal experiments were performed according to the guidelines approved by the Zhengzhou University Institutional Animal Care and Use Committee. A375 cell line (1 × 10^7 cell/mouse), SK-MEL-28 cell line (5 × 10^6 cell/mouse), SK-MEL-2 cell (5 × 10^6 cell/mouse), and HCT116 cell line (1 × 10^7 cell/mouse) were injected subcutaneously into the NOD-SCID mice (Vital River Labs, Beijing, China). For the melanoma PDX mice model, the tumor was taken after surgical operation and implanted into the NPG (Vital River Labs, Beijing, China) mice under a sterile environment. For the colorectal cancer PDX mice model, NOD-SCID mice were selected as carriers for tumor growth. The measurement of tumor size was performed twice a week using vernier caliper and the calculation of tumor volume was done according to tumor volume (mm^3) = length × width × height × 0.52.

Test [2] deals with SK-MEL-28 (BRAF V600E) CDX. Put plainly: Cell-derived xenograft (CDX). Particulars: 50 mg/kg, oral gavage, vs vehicle-treated group. On the procedure: as §3, §4
A further test relates to HCT116 (KRAS mut) CDX. As to the kind of experiment: Cell-derived xenograft (CDX). The class given is in vivo, NOD-SCID mice. The settings on record: 50 mg/kg, oral gavage. The procedure: as §3, §4
A further test relates to SK-MEL-2 (NRAS mut) CDX. Put plainly: Cell-derived xenograft (CDX). The class given is in vivo, NOD-SCID mice. The settings on record: 50 mg/kg, oral gavage. On the procedure:
as §3, §4

Setting [3] is: A-375, MTT, 72 h, read-out: IC50.
Setting [4] is: SK-MEL-28, MTT, 72 h, read-out: IC50.

In general, IC50 refers to the concentration that gives 50% inhibition.

Like-named read-outs stand apart in the source and are kept apart here. A value given as a limit tells only on which side of the number the result lay.

`Cn1cnc2c(F)c(Nc3ccc(Br)cc3F)c(C(=O)NOCCO)cc21` [Binimetinib]: the IC50 with A375 (BRAF V600E) (setting [3]) came to 60.9 ± 14.4 nM; with HCT116 (KRAS mut), 509 ± 145 nM; in the test with SK-MEL-2 (NRAS mut), 240 ± 81.2 nM; in the test with SK-MEL-28 (BRAF V600E) (setting [4]), 129 ± 28.3 nM.
Consider `O=C(c1ccc(F)c(F)c1Nc1ccc(I)cc1F)N1CC(O)([C@@H]2CCCCN2)C1` [Cobimetinib], for which the IC50 worked out at 3.2 ± 1.3 nM in the test on A375 (BRAF V600E) (setting [3]), 51.3 ± 8.9 nM in the test on HCT116 (KRAS mut), 119 ± 38.2 nM in the test with SK-MEL-2 (NRAS mut) and 2.6 ± 0.4 nM with SK-MEL-28 (BRAF V600E) (setting [4]). Besides, the tumor volume result with melanoma PDX is “no differences between erianin and cobimetinib”. In addition, the “phosphorylation of MEK1/2” value in test [1] (SK-MEL-2 and HCT116, 24 h) is “increased phosphorylation of MEK1/2”. For the same compound, in [1] (both BRAF V600E and RAS mutant cells, 24 h), the “phosphorylation of ERK1/2” value is “inhibits phosphorylation of ERK1/2 effectively”.
On to `CC(C)(C)c1nc(-c2cccc(NS(=O)(=O)c3c(F)cccc3F)c2F)c(-c2ccnc(N)n2)s1` [Dabrafenib], for which the IC50 with A375 (BRAF V600E) (A-375, 72 h) was 36.7 ± 9.7 nM; in the test on HCT116 (KRAS mut), more than 18000 nM; in the test with SK-MEL-2 (NRAS mut), more than 60000 nM; with SK-MEL-28 (BRAF V600E) (SK-MEL-28, 72 h) it was 41 ± 15.5 nM.
For the compound `COC(=O)N[C@@H](C)CNc1nccc(-c2cn(C(C)C)nc2-c2cc(Cl)cc(NS(C)(=O)=O)c2F)n1` [Encorafenib], the IC50 was 9.5 ± 3.9 nM in the test on A375 (BRAF V600E) (setting [3]), more than 2000 nM in the test with HCT116 (KRAS mut), more than 9000 nM with SK-MEL-2 (NRAS mut) and 6.5 ± 1.2 nM in the test with SK-MEL-28 (BRAF V600E) (setting [4]).
For the compound `CNc1ncc2cc(-c3cc(NC(=O)NCCC(C)(C)C)c(F)cc3C)c(C)nc2n1` [LY3009120], the “kinase activity of CRAF (phosphorylation of CRAF and MEK1/2)” value in test [1] (low dose, 24 h) is recorded as “induced kinase activity of CRAF at a low dose”.
With `CC(=O)Nc1cccc(-n2c(=O)n(C3CC3)c(=O)c3c(Nc4ccc(I)cc4F)n(C)c(=O)c(C)c32)c1` [Trametinib], the IC50 in the test on A375 (BRAF V600E) (setting [3]) was determined as 2.2 ± 0.8 nM; in the test on HCT116 (KRAS mut), 22.1 ± 9.2 nM; with SK-MEL-2 (NRAS mut), 50.6 ± 1.7 nM; with SK-MEL-28 (BRAF V600E) (setting [4]), 1.9 ± 0.2 nM.
With `CCCS(=O)(=O)Nc1ccc(F)c(C(=O)c2c[nH]c3ncc(-c4ccc(Cl)cc4)cc23)c1F` [Vemurafenib, reference compound], the IC50 in the test with A375 (BRAF V600E) (setting [3]) is 314 ± 73.7 nM; with HCT116 (KRAS mut) it was more than 20000 nM; with SK-MEL-2 (NRAS mut) it was more than 40000 nM; with SK-MEL-28 (BRAF V600E) (setting [4]) it was 344 ± 36.4 nM. The tumor volume entry in the test on A375 (BRAF V600E) CDX was “significant decrease”; in [2], “significant decrease”; in the test with melanoma PDX it was “did not suppress tumor volume significantly”. In addition, the “tumor volume and tumor weight” value with HCT116 (KRAS mut) CDX and with SK-MEL-2 (NRAS mut) CDX was “poor effect” throughout. Further, the “activation of MAPK signaling pathway (CRAF, MEK1/2, ERK1/2)” value in test [1] (SK-MEL-2 and HCT116, 24 h) is “induced the paradoxical activation of MAPK signaling pathway”.
